Measurements: ChEMBL document CHEMBL1201862, “PubChem BioAssay data set” (2004)
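How tested: cells in 96-well plates exposed to compound for 48 hours at five concentrations. The concentration for 50% growth inhibition is given as GI50.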 Activity calls are given as the source filed them. Rule as the data show it: active = GI50 up to about 1.1 µM and inactive = higher.

Experiments:
Assay in all cases: inhibition of tumour cell growth, NCI panel, 48 h
A549 = test system: A549
EKVX = test system: EKVX
HCT-116 = test system: HCT-116
HOP-62 = test system: HOP-62
K562 = test system: K562
KM12 = test system: KM12
Malme-3M = test system: Malme-3M
NCI-H23 = test system: NCI-H23
OVCAR-8 = test system: OVCAR-8
RXF 393 = test system: RXF 393
SF-268 = test system: SF-268
SF-539 = test system: SF-539
SNB-19 = test system: SNB-19
U-251 = test system: U-251
UACC-257 = test system: UACC-257
LOX IMVI = test system: LOX IMVI

Measured: GI50

COC(=O)[C@@H]1CCCCC[C@H]2C(CO)=C(C)C(=O)C12 (stereo partly drawn)
inactive: A549 > 100 µM | EKVX > 100 µM | HCT-116 > 100 µM | HOP-62 > 100 µM | K562 > 100 µM | KM12 > 100 µM | Malme-3M > 100 µM | NCI-H23 > 100 µM | OVCAR-8 > 100 µM | RXF 393 > 100 µM | SF-268 > 100 µM | SF-539 > 100 µM | SNB-19 > 100 µM | U-251 > 100 µM | UACC-257 > 100 µM

COc1nc(NC2OC(COC(C)=O)C(OC(C)=O)C(OC(C)=O)C2OC(C)=O)c(/N=C/C=N/c2c(NC3OC(COC(C)=O)C(OC(C)=O)C(OC(C)=O)C3OC(C)=O)nc(OC)[nH]c2=O)c(=O)[nH]1 (stereo not drawn)
inactive: A549 > 100 µM | EKVX > 100 µM | HCT-116 > 100 µM | HOP-62 > 100 µM | K562 > 100 µM | KM12 > 100 µM | LOX IMVI > 100 µM | Malme-3M > 100 µM | NCI-H23 > 100 µM | OVCAR-8 > 100 µM | SF-268 > 100 µM | SF-539 > 100 µM | SNB-19 > 100 µM | U-251 > 100 µM | UACC-257 > 100 µM

O=C(CC(=O)C(=O)Nc1ccccc1)CC(c1ccccc1)c1c(O)c2ccccc2oc1=O (stereo not drawn)
inactive: A549 > 100 µM | EKVX > 100 µM | HCT-116 > 100 µM | K562 > 100 µM | KM12 > 100 µM | LOX IMVI > 100 µM | Malme-3M > 100 µM | RXF 393 > 100 µM | SF-268 > 100 µM | SF-539 > 100 µM | SNB-19 > 100 µM

CC(=O)O[C@@H]1C2C(=O)OC(=O)C2C2CCC[C@]23O[C@H]13 (stereo partly drawn)
inactive: A549 > 100 µM | HCT-116 > 100 µM | HOP-62 > 100 µM | K562 > 100 µM | KM12 > 100 µM | Malme-3M > 100 µM | OVCAR-8 > 100 µM | RXF 393 > 100 µM | SF-268 > 100 µM | SF-539 > 100 µM | SNB-19 > 100 µM | U-251 > 100 µM | UACC-257 > 100 µM

CC(=O)NNc1nc(C)c(C(=O)NNC(=O)C(=O)Nc2c(Cl)cc([N+](=O)[O-])cc2Cl)s1
inactive: A549 31.6 µM | EKVX 44.2 µM | HCT-116 34.5 µM | HOP-62 56.6 µM | K562 36 µM | KM12 40 µM | LOX IMVI 25.6 µM | Malme-3M 36.1 µM | NCI-H23 18.9 µM | OVCAR-8 34.1 µM | SF-268 29.7 µM | SF-539 24.2 µM | SNB-19 43.8 µM | U-251 > 100 µM | UACC-257 26.6 µM

COc1ccc(/C=C2\N=C(c3ccccc3)N(Nc3nnc(NN4C(=O)/C(=C/c5ccc(OC)cc5)N=C4c4ccccc4)c4ccccc34)C2=O)cc1
inactive: A549 > 100 µM | EKVX > 100 µM | HCT-116 94.4 µM | HOP-62 62.7 µM | K562 38.1 µM | KM12 17.2 µM | LOX IMVI 20.7 µM | NCI-H23 > 100 µM | OVCAR-8 > 100 µM | RXF 393 > 100 µM | SF-268 81.8 µM | SF-539 70.6 µM | SNB-19 > 100 µM | U-251 94.8 µM | UACC-257 > 100 µM

CCN1c2ccccc2C(C(SC)S(=O)(=O)c2ccc(C)cc2)c2c1[nH]c(=O)n(C)c2=O (stereo not drawn)
inactive: A549 > 100 µM | EKVX > 100 µM | HCT-116 > 100 µM | HOP-62 > 100 µM | K562 > 100 µM | KM12 > 100 µM | LOX IMVI > 100 µM | Malme-3M 88.1 µM | NCI-H23 > 100 µM | OVCAR-8 > 100 µM | SF-268 > 100 µM | SF-539 > 100 µM | SNB-19 > 100 µM | U-251 > 100 µM | UACC-257 > 100 µM

Cn1cnc(CCc2ccccc2)n1
inactive: A549 > 100 µM | HCT-116 > 100 µM | HOP-62 > 100 µM | K562 > 100 µM | KM12 > 100 µM | LOX IMVI > 100 µM | Malme-3M > 100 µM | NCI-H23 > 100 µM | OVCAR-8 > 100 µM | RXF 393 > 100 µM | SF-268 > 100 µM | SF-539 > 100 µM | U-251 > 100 µM | UACC-257 > 100 µM

NCCCNCCCCN(CCCN)/[N+]([O-])=N\O
inactive: A549 > 100 µM | EKVX > 100 µM | HCT-116 > 100 µM | HOP-62 > 100 µM | K562 > 100 µM | KM12 > 100 µM | Malme-3M > 100 µM | NCI-H23 > 100 µM | OVCAR-8 > 100 µM | RXF 393 > 100 µM | SF-268 > 100 µM | SF-539 > 100 µM | SNB-19 > 100 µM | UACC-257 > 100 µM

C/C(CN1C(=O)c2ccccc2C1=O)=N\NS(=O)(=O)c1cccc(C(=O)O)c1
inactive: A549 > 100 µM | EKVX > 100 µM | HCT-116 > 100 µM | HOP-62 > 100 µM | K562 > 100 µM | KM12 > 100 µM | Malme-3M > 100 µM | NCI-H23 > 100 µM | OVCAR-8 > 100 µM | SF-268 > 100 µM | SF-539 > 100 µM | SNB-19 > 100 µM | U-251 > 100 µM | UACC-257 > 100 µM

Cc1cc(N(CCC#N)CCC#N)ccc1/C=C\C(=O)Nc1ccccc1
inactive: A549 > 100 µM | EKVX > 100 µM | HCT-116 > 100 µM | HOP-62 57 µM | K562 1.37 µM | KM12 97.5 µM | LOX IMVI 1.26 µM | Malme-3M > 100 µM | NCI-H23 > 100 µM | OVCAR-8 > 100 µM | SF-268 97.1 µM | SF-539 76.7 µM | SNB-19 > 100 µM | U-251 > 100 µM | UACC-257 > 100 µM

Cc1c(-c2cc(-c3ccccc3)n[nH]c2=O)c2ccccc2n1C
inactive: A549 > 100 µM | EKVX > 100 µM | HCT-116 > 100 µM | HOP-62 > 100 µM | K562 > 100 µM | KM12 > 100 µM | Malme-3M > 100 µM | NCI-H23 > 100 µM | OVCAR-8 > 100 µM | RXF 393 > 61.7 µM | SF-268 > 100 µM | SF-539 > 100 µM | SNB-19 > 100 µM | U-251 > 100 µM | UACC-257 > 100 µM

C=C1C(OC(=O)/C=C/c2ccccc2)CC(OC(C)=O)C2(C)C1CC1CC(OC(C)=O)C(C)=C(C(OC(C)=O)C2OC(C)=O)C1(C)C (stereo not drawn)
inactive: A549 5.45 µM | HCT-116 3.79 µM | HOP-62 > 100 µM | K562 5.25 µM | KM12 8.59 µM | LOX IMVI > 100 µM | Malme-3M > 100 µM | OVCAR-8 > 100 µM | SF-268 > 100 µM | SF-539 > 100 µM | SNB-19 > 100 µM | U-251 > 100 µM
